{"source": "patent US11793746B2", "about": "“Intense skin hydration systems and methods” (priority 2020, dated 2023)", "key": {"[1]": {"test_system": "hepatocytes", "assay": "Cellular O2 consumption measured with an oxygraph", "assay_type": "cell-based", "settings": "3% GC-100", "excerpt": "Increased cellular respiration may be equated with more efficient use of cellular reserves (e.g., polysaccharides & triglycerides) and improved elimination of metabolic waste. The end result of enhanced cellular respiration is cellular regeneration and restoration of the organ system being evaluated. The activation of cellular respiration can be evaluated using an oxygraph. Since the oxygraph electrode response is directly proportional to the concentration of dissolved O2 in the test media, a measure of cellular O2 consumption can be calculated to yield information on changes in cellular respiration. […] FIG. 4 is a graph showing hepatocyte oxygen consumption in the presence of GC-100 at various concentrations."}, "[2]": {"test_system": "collagen I and collagen III", "assay": "Collagen deposition by light and electron microscopy", "settings": "20,000×; vs untreated control", "description": "Skin tissue treated with GC-100 in the absence of ascorbic acid was prepared to illustrate collagen deposition. Tissue samples were first pretreated with Bouin's solution to intensify subsequent staining results. Samples were then treated with Mason's trichrome stain, which combines the plasma stain (chromotrope 2R) and connective tissue fiber stain)aniline blue) in a phosphotungstic acid solution to which glacial acetic acid was added. The collagen absorbs the tungsten ion, which may be visualized due to the complexed aniline blue.\nStaining for specific collagen types was achieved using specific standardized indirect immunoperoxidase attains for collagen I and III, respectively.\nCollagen deposition assessments are based on the visual interpretation of two endpoints: Collagen I and Collagen III. An untreated control and a tissue sample treated with GC-100 were stained to reveal collagen I. A similar method of comparison was used to illustrate collagen III deposition in control and treated tissue.\nTissues used for light microscopy were place in Karnovsky's fixative for additional evaluation using electron microscopy standard technique. Magnification power of 20,000× was used for visualization of the lower dermis."}, "[3]": {"molecular_target": "T1, tyrosinase (Mus musculus, UniProt P11344)", "T1 construct": "endogenous in cells; host or cells: B16 melanoma cells", "T1 sequence (P11344 19-533)": "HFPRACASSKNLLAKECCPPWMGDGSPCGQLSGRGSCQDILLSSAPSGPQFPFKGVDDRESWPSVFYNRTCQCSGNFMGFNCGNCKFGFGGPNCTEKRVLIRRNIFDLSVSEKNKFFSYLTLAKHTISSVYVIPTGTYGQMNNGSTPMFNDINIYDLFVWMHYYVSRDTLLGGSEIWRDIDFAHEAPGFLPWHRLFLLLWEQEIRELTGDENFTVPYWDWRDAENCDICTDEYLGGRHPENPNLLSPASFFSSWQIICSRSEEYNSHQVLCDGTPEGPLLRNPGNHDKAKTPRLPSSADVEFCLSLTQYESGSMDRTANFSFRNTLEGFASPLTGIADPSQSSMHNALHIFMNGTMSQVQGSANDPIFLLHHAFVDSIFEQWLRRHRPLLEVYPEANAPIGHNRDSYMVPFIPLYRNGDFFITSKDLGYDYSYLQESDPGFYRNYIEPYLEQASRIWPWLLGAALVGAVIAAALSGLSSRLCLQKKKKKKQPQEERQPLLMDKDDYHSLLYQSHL", "assay": "Tyrosinase activity in B16 melanoma cells", "assay_type": "cell-based", "description": "This Example establishes and quantifies the effect of GC-100 on tyrosinase synthesis in B16 melanoma cells.\nIt has been reported that tyrosinase in synthesized in B16 melanoma cells within 24 hours of plating. On the basis of these reports, B16 melanoma cells were used to evaluate the inhibitory effects of GC-100 on tyrosinase synthesis. As an indication of tyrosinase synthesis, tyrosinase activity in B16 melanoma cells was measured in addition to the amount of melanin synthesized per cell.\nB16 melanoma cells (5.0′×10^4) were incubated in a 96-well microplate supplemented with DMEM and 5% fetal calf serum at 37° C. for 24 hours. Incubation was continued for an additional 24 hours at 37° C. in DMEM supplemented with GC-100 at either 250 μg/mL, 500 μg/mL, or 1000 μg/mL. After washing cells with PBS twice, the cells were lysed with 50 μL of phosphate buffer (0.05 mM, pH 6.8) containing 0.1% Triton-X, and incubated at 37° C. for 30 minutes. Then 100 μL of phosphate buffer (0.1 mM, pH 6.8) containing 0.1% DOPA was added to the lysate and incubated at 37° C. for 3 hours. The resultant melanin content and protein content of the lysate were then quantified.\nGC-100 selected for examination was quantitatively evaluated regarding its inhibitory activity of melanogenesis in B16 melanoma cells. B16 melanoma cells were seeded into a 60 mm diameter dish at density of 1.5′×10^5 cells/dish and incubated at 37° C. in DMEM supplemented with 10% FCS and 40 mM sodium lactate. After 4 days, the medium was exchanged to DMEM supplemented with 5% FCS and the aforementioned concentrations of GC-100 and cultured at 37° C. The results are shown in Table 5 and FIG. 11, which is a graph showing tyrosinase activity as a function of GC-100 concentration."}}}
{"substance": "H-Lys-Pro-NH2 [GC-100]", "values": [{"measurement": "average increase in O2 consumption", "setting": "[1]", "value": "282%±30"}, {"measurement": "% increase O2 consumption", "setting": "[1]; 57 mg cells", "value": 310, "unit": "%"}, {"measurement": "Final consumption, ha", "setting": "[1]; 57 mg cells", "value": 1.259, "unit": "nm O2/min/mg cells"}, {"measurement": "% increase O2 consumption", "setting": "[1]; 58 mg cells", "value": 260, "unit": "%"}, {"measurement": "Final consumption, ha", "setting": "[1]; 58 mg cells", "value": 1.003, "unit": "nm O2/min/mg cells"}, {"measurement": "% increase O2 consumption", "setting": "[1]; 60 mg cells", "value": 240, "unit": "%"}, {"measurement": "Final consumption, ha", "setting": "[1]; 60 mg cells", "value": 0.865, "unit": "nm O2/min/mg cells"}, {"measurement": "% increase O2 consumption", "setting": "[1]; 63 mg cells", "value": 280, "unit": "%"}, {"measurement": "Final consumption, ha", "setting": "[1]; 63 mg cells", "value": 0.879, "unit": "nm O2/min/mg cells"}, {"measurement": "% increase O2 consumption", "setting": "[1]; 64 mg cells", "value": 320, "unit": "%"}, {"measurement": "Final consumption, ha", "setting": "[1]; 64 mg cells", "value": 0.954, "unit": "nm O2/min/mg cells"}, {"measurement": "collagen fibers in lower dermis, electron microscopy", "setting": "[2]", "value": "collagen fiber density is increased"}, {"measurement": "Tyrosinase activity (% of untreated control)", "setting": "[3]; GC-100 250 μg/mL", "value": "57.3 ± 12", "unit": "%"}, {"measurement": "Tyrosinase activity (% of untreated control)", "setting": "[3]; GC-100 500 μg/mL", "value": "34.1 ± 14", "unit": "%"}, {"measurement": "Tyrosinase activity (% of untreated control)", "setting": "[3]; GC-100 1000 μg/mL", "value": "6.6 ± 14.8", "unit": "%"}]}
